From paper PMC2713365 (International journal for parasitology, 2009)

How the values were obtained:
AsGAR-1 [1] = target: T1, AsGAR-1 (Ascaris suum, UniProt C0KJK1); experiment: cell-based; details: read-out: yeast functional expression, growth reporter, agonist at 10^-4 M
AsGAR-1 [2] = target: T1, AsGAR-1; experiment: yeast functional expression, antagonism of […] ACh by […] compound; type: cell-based; details: read-out: % inhibition at 10^-4 M
AsGAR-1 [3] = target: T1, AsGAR-1; experiment: as above; type: cell-based; details: read-out: % of control growth at 10^-4 M

| SMILES | fold induction at 100 µM (AsGAR-1 [1]) | remaining activity at 100 µM (AsGAR-1 [3]) | also measured |
| --- | --- | --- | --- |
| COC(=O)C1=CCCN(C)C1 [Arec, arecoline] | 10.2 ± 1.6 | – | – |
| CN1[C@@H]2CC[C@H]1C[C@@H](OC(=O)C(CO)c1ccccc1)C2 (some centres unmarked) [Atr, atropine] | – | – | inhibition at 100 µM (AsGAR-1 [2]): 62.2% |
| CC(C[N+](C)(C)C)OC(N)=O (centres unmarked) [Beth, bethanechol] | 7.7 ± 0.8 | – | – |
| C[N+](C)(C)CCOC(N)=O [Carb, carbachol] | 10.8 ± 1.7 | – | – |
| CN1CCN2c3ccccc3Cc3ccccc3C2C1 (centres unmarked) [Mian, mianserin] | – | 24 ± 0.1% | – |
| C[N+](C)(C)CC#CCN1CCCC1=O [Oxo, oxotremorine M] | 8.2 ± 1.7 | – | – |
| CC(C)NCC(O)COc1cccc2ccccc12 (centres unmarked) [Prop, propranolol] | – | 41.2 ± 8.9% | – |
| O=C(CCCN1CCC2(CC1)C(=O)NCN2c1ccccc1)c1ccc(F)cc1 [Spip, spiperone] | – | 52.8 ± 7.6% | – |
